Holding throughout (assay type): in vivo
One assay concerns Botrytis cinerea. Put plainly: Botrytis test (beans)/protective. To be noted: Table F. As to the method:
(§1) Solvent: 24.5 parts by weight of acetone
(§2) • 24.5 parts by weight of dimethylacetamide Emulsifier: 1 part by weight of alkylaryl polyglycol ether
To produce a suitable preparation of active compound, 1 part by weight of active compound is mixed with the stated amounts of solvent and emulsifier, and the concentrate is diluted with water to the desired concentration. To test for protective activity, young plants are sprayed with the preparation of active compound. After the spray coating has dried on, 2 small pieces of agar covered with growth of Botrytis cinerea are placed on each leaf. The inoculated plants are placed in a darkened chamber at 20° C. and a relative atmospheric humidity of 100%. 2 days after the inoculation, the size of the lesions on the leaves is evaluated. 0% means an efficacy which corresponds to that of the control, while an efficacy of 100% means that no disease is observed.

The subject of the next assay is Sphaerotheca fuliginea. Put plainly: Sphaerotheca test (cucumbers)/protective. To be noted: Table C; for pest or weed control at 5 ppm: 5 ppm a.i. As to the method: as §1, §2
To produce a suitable preparation of active compound, 1 part by weight of active compound is mixed with the stated amounts of solvent and emulsifier, and the concentrate is diluted with water to the desired concentration. To test for protect activity, young plants are sprayed with the preparation of active compound at the stated rate of application. After the spray coating has dried on, the plants are inoculated with an aqueous spore suspension of Sphaerotheca fuliginea. The plants are then placed in a greenhouse at approximately 23° C. and a relative atmospheric humidity of approximately 70%. The test is evaluated 7 days after the inoculation. 0% means an efficacy which corresponds to that of the control, while an efficacy of 100% means that no disease is observed.

The test system of the next assay is Alternaria solani. Put plainly: Alternaria test (tomatoes)/protective. To be noted: Table E. The method, then:
as §1, §2
To produce a suitable preparation of active compound, 1 part by weight of active compound is mixed with the stated amounts of solvent and emulsifier, and the concentrate is diluted with water to the desired concentration. To test for protective activity, young plants are sprayed with the preparation of active compound at the stated rate of application. After the spray coating has dried on, the plants are inoculated with an aqueous spore suspension of Alternaria solani. The plants are then placed in an incubation cabinet at approximately 20° C. and a relative atmospheric humidity of 100%. The test is evaluated 3 days after the inoculation. 0% means an efficacy which corresponds to that of the control while an efficacy of 100% means that no disease is observed.

For a further assay, the system named is Phytophthora infestans. Put plainly: whole plant or invertebrate. The following applies: for Efficacy in % found: Table A.
[1] abbreviates: Botrytis cinerea, 48 h, test 1, 25 ppm a.i., read-out: Efficacy in % found.
Setting [2] is: Podosphaera fuliginea, 168 h, test 4, read-out: Efficacy in % found.
Where [3] appears, read: Botrytis cinerea, 48 h, test 2, 50 ppm a.i., read-out: Efficacy in % found.

Read-outs that look alike come from different tables or passages of the source.

As to `Fc1ccc([C@]2(Cn3cncn3)O[C@H]2c2ccccc2Cl)cc1` (racemic) [(1.12), epoxiconazole], the pest or weed control at 25 ppm in the assay on Botrytis cinerea (setting [1]) was determined as 49%. Besides, in the assay with Sphaerotheca fuliginea (Podosphaera fuliginea, 168 h, test 1, 0.5 ppm a.i., read-out: Efficacy in % found), the pest or weed control at 0.5 ppm amounted to 30%.

In the case of `CC(C)(C)C(O)C(Oc1ccc(-c2ccccc2)cc1)n1cncn1` (stereo not shown) [(1.3), bitertanol], the pest or weed control at 5 ppm with Sphaerotheca fuliginea (setting [2]) is 71%.

As for `CC(C1CC1)C(O)(Cn1cncn1)c1ccc(Cl)cc1` (stereo not shown) [(1.5), cyproconazole], the pest or weed control at 0.5 ppm with Alternaria solani (Alternaria solani, 72 h, test 2, 0.5 ppm a.i., read-out: Efficacy in % found) was 0%.

On to `CC1COC(Cn2cncn2)(c2ccc(Oc3ccc(Cl)cc3)cc2Cl)O1` (stereo not shown) [(1.7), difenoconazole], for which, in the assay on Sphaerotheca fuliginea (setting [2]), the pest or weed control at 5 ppm was determined as 38%.

With `CCCN(CC)CC1COC2(CCC(C(C)(C)C)CC2)O1` (stereo not shown) [(1.46), spiroxamine], the pest or weed control at 100 ppm in the assay with Sphaerotheca fuliginea (Podosphaera fuliginea, 168 h, test 3, 100 ppm a.i., read-out: Efficacy in % found) came out at 10%.

Take `CC(C)(C)C(=O)C(Oc1ccc(Cl)cc1)n1cncn1` (stereo not shown) [(1.50), triadimefon]: the pest or weed control at 5 ppm in the assay on Sphaerotheca fuliginea (setting [2]) is 19%.

As for `CO/C=C(/C(=O)OC)c1ccccc1Oc1cc(Oc2ccccc2C#N)ncn1` [(3.2), azoxystrobin], the “Efficacy in % found” value in the assay with Phytophthora infestans (test 1, 1 ppm a.i.) was 23%; in the assay on Botrytis cinerea (test 1, 25 ppm a.i.), 0%; in the assay on Alternaria solani (test 1, 0.5 ppm a.i.) it was 40%.

As for `CSC1=N[C@@](C)(c2ccccc2)C(=O)N1Nc1ccccc1` [(3.7), fenamidone], the pest or weed control at 1 ppm in the assay with Phytophthora infestans (Phytophthora infestans, 72 h, read-out: Efficacy in % found, Table A, test 1, 1 ppm a.i.) was found to be 62%.

With `CCCCNC(=O)n1c(NC(=O)OC)nc2ccccc21` [(4.1), benomyl], in the assay on Botrytis cinerea (Botrytis cinerea, 48 h, test 3, 2.5 ppm a.i., read-out: Efficacy in % found), the pest or weed control at 2.5 ppm was determined as 8%.

With `CCOc1ccc(NC(=O)OC(C)C)cc1OCC` [(4.3), diethofencarb], the pest or weed control at 50 ppm with Botrytis cinerea (Botrytis cinerea, 48 h, test 3, 50 ppm a.i., read-out: Efficacy in % found) came to 29%.

As to `O=C(Nc1ccccc1)N(Cc1ccc(Cl)cc1)C1CCCC1` [(4.6), pencycuron], the pest or weed control at 50 ppm in the assay with Botrytis cinerea (setting [3]) was found to be 0%.

Take `COC(=O)NC(=S)Nc1ccccc1NC(=S)NC(=O)OC` [(4.8), thiophanate-methyl]: in the assay on Phytophthora infestans (Phytophthora infestans, 72 h, read-out: Efficacy in % found, Table A, test 6, 250 ppm a.i.), the pest or weed control at 250 ppm is 29%. In addition, the pest or weed control at 12.5 ppm in the assay on Botrytis cinerea (Botrytis cinerea, 48 h, test 3, 12.5 ppm a.i., read-out: Efficacy in % found) was 84%.

`O=C1C2CC=CCC2C(=O)N1SC(Cl)(Cl)Cl` (stereo not shown) [(5.3), captan]: the pest or weed control at 50 ppm with Phytophthora infestans (Phytophthora infestans, 72 h, read-out: Efficacy in % found, Table A, test 6, 50 ppm a.i.) is 60%.

In the case of `N#Cc1c(Cl)c(Cl)c(Cl)c(C#N)c1Cl` [(5.4), chlorothalonil], in the assay with Phytophthora infestans (Phytophthora infestans, 72 h, read-out: Efficacy in % found, Table A, test 5, 2.5 ppm a.i.), the pest or weed control at 2.5 ppm was 50%.

With `N#Cc1sc2c(=O)c3ccccc3c(=O)c=2sc1C#N` [(5.6), dithianon], the pest or weed control at 25 ppm in the assay with Phytophthora infestans (Phytophthora infestans, 72 h, read-out: Efficacy in % found, Table A, test 6, 25 ppm a.i.) was determined as 54%.

As to `O=C1c2ccccc2C(=O)N1SC(Cl)(Cl)Cl` [(5.9), folpet], the pest or weed control at 50 ppm in the assay on Phytophthora infestans (Phytophthora infestans, 72 h, read-out: Efficacy in % found, Table A, test 3, 50 ppm a.i.) was 32%.

`[Cu+2].[OH-].[OH-]` [(5.16), copper hydroxide]: in the assay on Phytophthora infestans (test 6, 25 ppm a.i.), the “Efficacy in % found” value amounted to 43%.

For `Cc1cc(C)nc(Nc2ccccc2)n1` [(7.7), pyrimethanil], the pest or weed control at 50 ppm with Botrytis cinerea (setting [3]) came out at 0%.

Regarding `CC(C)[C@H](NC(=O)O)C(=O)N[C@H](C)c1nc2ccc(F)cc2s1` [(9.1), benthiavalicarb], in the assay on Phytophthora infestans (test 1, 0.25 ppm a.i.), the “Efficacy in % found” value stood at 12%.

As for `COc1ccc(C(=CC(=O)N2CCOCC2)c2ccc(Cl)cc2)cc1OC` [(9.2), dimethomorph], the pest or weed control at 0.5 ppm in the assay with Phytophthora infestans (Phytophthora infestans, 72 h, read-out: Efficacy in % found, Table A, test 2, 0.5 ppm a.i.) was determined as 28%.

Take `Cc1ccc(C(C)NC(=O)[C@@H](NC(=O)OC(C)C)C(C)C)cc1` (stereo partly shown) [(9.4), iprovalicarb]: the “Efficacy in % found” value in the assay with Phytophthora infestans (test 7, 1.25 ppm a.i.) is listed as 42%.

Regarding `COC(=O)CC(NC(=O)[C@@H](NC(=O)OC(C)C)C(C)C)c1ccc(Cl)cc1` (stereo partly shown) [(9.10), valifenalate], the “Efficacy in % found” value in the assay on Phytophthora infestans (test 2, 0.5 ppm a.i.) is listed as 58%.

`CC(C)NC(=O)N1CC(=O)N(c2cc(Cl)cc(Cl)c2)C1=O` [(10.7), iprodione]: the pest or weed control at 25 ppm with Botrytis cinerea (setting [1]) is 0%. Further, in the assay with Alternaria solani (Alternaria solani, 72 h, test 1, 12.5 ppm a.i., read-out: Efficacy in % found), the pest or weed control at 12.5 ppm turned out to be 35%.

On to `COC(=O)C(C)N(C(=O)Cc1ccccc1)c1c(C)cccc1C` (stereo not shown) [(12.1), benalaxyl], for which, in the assay on Phytophthora infestans (Phytophthora infestans, 72 h, read-out: Efficacy in % found, Table A, test 4, 1 ppm a.i.), the pest or weed control at 1 ppm stood at 26%.

Take `COC(=O)[C@@H](C)N(C(=O)Cc1ccccc1)c1c(C)cccc1C` [(12.2), benalaxyl-M (kiralaxyl)]: the “Efficacy in % found” value in the assay on Phytophthora infestans (test 4, 1 ppm a.i.) is on record as 19%.

With `N#Cc1c[nH]cc1-c1cccc(Cl)c1Cl` [(13.1), fenpiclonil], in the assay with Botrytis cinerea (Botrytis cinerea, 48 h, test 2, 10 ppm a.i., read-out: Efficacy in % found), the pest or weed control at 10 ppm is 0%.

Consider `N#Cc1c[nH]cc1-c1cccc2c1OC(F)(F)O2` [(13.2), fludioxonil], for which the pest or weed control at 5 ppm in the assay on Botrytis cinerea (Botrytis cinerea, 48 h, test 2, 5 ppm a.i., read-out: Efficacy in % found) was 84%.

For `Fc1ccc(Oc2ccnc3cc(Cl)cc(Cl)c23)cc1` [(13.3), quinoxyfen], the pest or weed control at 5 ppm with Sphaerotheca fuliginea (Podosphaera fuliginea, 168 h, test 3, read-out: Efficacy in % found) was 37%.

With `CCCCCCCCc1c(CC)nc2ncnn2c1N` [(15.1), ametoctradin], the “Efficacy in % found” value in the assay with Phytophthora infestans (test 2, 2.5 ppm a.i.) is recorded as 73%.

As to `O=C(NCc1ncc(C(F)(F)F)cc1Cl)c1c(Cl)cccc1Cl` [(15.17), fluopicolide], the “Efficacy in % found” value with Phytophthora infestans (test 1, 1 ppm a.i.) was determined as 0%.

On to `CCO[PH](=O)O` [(15.20), fosetyl-Al], for which the “Efficacy in % found” value in the assay on Phytophthora infestans (test 7, 62.5 ppm a.i.) was 53%.

Consider `N#Cc1ccccc1NC(=O)c1snc(Cl)c1Cl` [(15.22), isotianil], for which the “Efficacy in % found” value in the assay on Botrytis cinerea (test 2, 50 ppm a.i.) was 0%.

As to `COc1cc(C)c(C(=O)c2c(OC)ccc(Br)c2C)c(OC)c1OC` [(15.25), metrafenone], the pest or weed control at 10 ppm in the assay on Sphaerotheca fuliginea (Podosphaera fuliginea, 168 h, test 2, 10 ppm a.i., read-out: Efficacy in % found) is 21%.

Turning to `COc1ccccc1N1CCS/C1=C(/C#N)Sc1cc(C(F)(F)F)ccc1F` [(15.57), flutianil], the “Efficacy in % found” value in the assay with Sphaerotheca fuliginea (test 2, 0.5 ppm a.i.) is 48%.

As for `CCCCCOC(=O)Nc1cccc(CON=C(c2ccccc2)c2nnnn2C)n1` [(15.66), pentyl {6-[({[(1-methyl-1H-tetrazol-5-yl)(phenyl)methylidene]amino}oxy)-methyl]pyridin-2-yl}carbamate], the pest or weed control at 0.5 ppm in the assay on Phytophthora infestans (Phytophthora infestans, 72 h, read-out: Efficacy in % found, Table A, test 5, 0.5 ppm a.i.) is 30%.

As to `Cc1cc(C(F)(F)F)nn1CC(=O)N1CCC(c2nc(C3=NO[C@@H](c4c(F)cccc4F)C3)cs2)CC1` [(15.88), 1-(4-{4-[(5R)-5-(2,6-difluorophenyl)-4,5-dihydro-1,2-oxazol-3-yl]-1,3-thiazol-2-yl}piperidin-1-yl)-2-[5-methyl-3-(trifluoromethyl)-1H-pyrazol-1-yl]ethanone], in the assay on Phytophthora infestans (Phytophthora infestans, 72 h, read-out: Efficacy in % found, Table A, test 5, 0.025 ppm a.i.), the pest or weed control at 0.025 ppm came to 50%.

Consider mancozeb [(5.19)], for which the “Efficacy in % found” value in the assay on Phytophthora infestans (test 3, 50 ppm a.i.) was 53%.

For metalaxyl-M (mefenoxam) [(12.10)], the “Efficacy in % found” value in the assay with Phytophthora infestans (test 7, 1.25 ppm a.i.) is 13%.

Turning to metiram [(5.21)], the “Efficacy in % found” value with Phytophthora infestans (test 3, 50 ppm a.i.) is listed as 17%.

Take “phosphorous acid and its salts [(15.62)]”: the “Efficacy in % found” value in the assay with Phytophthora infestans (test 6, 500 ppm a.i.) stood at 54%.

Take propineb [(5.23)]: in the assay on Phytophthora infestans (test 6, 50 ppm a.i.), the “Efficacy in % found” value is 26%.

Values taken from patent US9006139B2, “Active compound combinations” (Bayer Intellectual Property GmbH, priority 2009, dated 2015).
